In ChEMBL document CHEMBL3813628, “Molecular similarity guided optimization of novel Nrf2 activators with 1,2,4-oxadiazole core” (Bioorg Med Chem, 2016) one finds fold change (FC) and Activity data, which are given here for 19 molecules.

The target in series [1] is T1, Nuclear factor erythroid 2-related factor 2 (Homo sapiens) (UniProt Q16236).
T1 sequence (whole entry): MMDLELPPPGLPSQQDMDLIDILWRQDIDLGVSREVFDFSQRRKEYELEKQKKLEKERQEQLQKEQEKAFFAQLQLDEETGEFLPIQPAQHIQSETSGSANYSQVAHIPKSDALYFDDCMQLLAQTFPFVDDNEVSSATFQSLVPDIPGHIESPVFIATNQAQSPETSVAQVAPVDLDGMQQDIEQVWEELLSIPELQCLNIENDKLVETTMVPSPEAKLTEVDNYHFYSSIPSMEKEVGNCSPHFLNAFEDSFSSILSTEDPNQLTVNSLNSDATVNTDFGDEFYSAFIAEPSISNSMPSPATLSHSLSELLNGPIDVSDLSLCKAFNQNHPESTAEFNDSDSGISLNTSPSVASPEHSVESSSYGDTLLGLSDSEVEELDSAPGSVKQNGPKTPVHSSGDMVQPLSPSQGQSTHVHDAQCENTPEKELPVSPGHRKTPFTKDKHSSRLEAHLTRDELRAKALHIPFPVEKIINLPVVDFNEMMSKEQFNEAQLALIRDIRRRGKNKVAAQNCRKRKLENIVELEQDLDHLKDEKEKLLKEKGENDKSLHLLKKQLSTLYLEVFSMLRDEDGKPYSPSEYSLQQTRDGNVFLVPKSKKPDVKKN
Description: Activation of Nrf2 in human HepG2 cells at 5 uM incubated for 12 hrs by ARE-driven luciferase reporter gene assay relative to control. Type of series: cell-based. (A reporter such as luciferase makes a cellular process visible.)

Series [2] addresses T1, Nuclear factor erythroid 2-related factor 2 (Homo sapiens). Description: Activation of Nrf2 in human HepG2 cells at 20 uM incubated for 12 hrs by ARE-driven luciferase reporter gene assay relative to control. Type of series: cell-based.
The target is the same in series [3]. Description: Activation of Nrf2 in human HepG2 cells at 80 uM incubated for 12 hrs by ARE-driven luciferase reporter gene assay relative to control. Type of series: cell-based.
Series [4] shares this target. Description: Activation of Nrf2 in human HepG2 cells at 160 uM incubated for 12 hrs by ARE-driven luciferase reporter gene assay relative to control. Format: cell-based.
Series [5] shares this target. The series can be described thus: Activation of Nrf2 in human HepG2 cells at 0.02 uM incubated for 12 hrs by ARE-driven luciferase reporter gene assay relative to control. Type of series: cell-based.
Series [6] shares this target. Description: Activation of Nrf2 in human HepG2 cells at 0.2 uM incubated for 12 hrs by ARE-driven luciferase reporter gene assay relative to control. Format: cell-based.
Series [7] shares this target. The series can be described thus: Activation of Nrf2 in human HepG2 cells at 2 uM incubated for 12 hrs by ARE-driven luciferase reporter gene assay relative to control. Type of series: cell-based.
The target is the same in series [8]. Description: Activation of Nrf2 in human HepG2 cells at 40 uM incubated for 12 hrs by ARE-driven luciferase reporter gene assay relative to control. Type of series: cell-based.
A short description of series [9]: Cytotoxicity against human L02 cells assessed as cell viability at low to medium concentration after 24 hrs by MTT assay relative to control. Type of series: cell-based. The conditions noted are these: l02, 24 h.
A short description of series [10]: Cytotoxicity against human NCM460 cells assessed as cell viability at low to medium concentration after 24 hrs by MTT assay relative to control. Format: cell-based. As to conditions: ncm460, 24 h. A general note: Formazan colour is commonly taken as a measure of viable cells.
Series [11] can be described thus: Cytotoxicity against rat PC12 cells assessed as cell viability at low to medium concentration after 24 hrs by MTT assay relative to control. Format: cell-based. As to conditions: pc-12, 24 h.
The test system of series [12] is L02. The series can be described thus: Cytoprotective activity against H2O2-induced cytotoxicity in human L02 cells assessed as cell viability pretreated at 20 uM for 24 hrs followed by H2O2 challenge for 12 hrs by MTT assay (reference value: 50%). Type of series: functional.
Series [13] relates to NCM460. Description: Cytoprotective activity against H2O2-induced cytotoxicity in human NCM460 cells assessed as cell viability pretreated at 20 uM for 24 hrs followed by H2O2 challenge for 12 hrs by MTT assay (reference value: 50%). Format: functional.
Series [14] relates to PC-12. The series can be described thus: Cytoprotective activity against H2O2-induced cytotoxicity in rat PC12 cells assessed as cell viability pretreated at 20 uM for 24 hrs followed by H2O2 challenge for 12 hrs by MTT assay (reference value: 50%). Format: functional.

Active and inactive are the calls of the source. No cut-off for these calls is given here.

`CCc1cc(O)nc(SCc2nc(-c3ccc(Cl)c(F)c3)no2)n1`: the fold change (FC) in series [1] is 1.38; in [2], 4.28.
Consider `Cc1nc2cc(-c3noc(/C=C/c4ccccc4)n3)ccc2o1`, for which the fold change (FC) was found to be 7.31 in series [3]; 7.64 in series [4]; 4.64 in series [1]; 5.46 in series [2]; 2.26 in series [5]; 3.14 in series [6]. The fold change (FC) in series [7] amounted to 4.11; in series [8], 6.78.
Take `CC(C)n1c(=O)[nH]c2cc(-c3noc(/C=C/c4ccccc4)n3)ccc21`: the fold change (FC) came to 3.19 in [1] and 5.19 in series [2].
`Cc1nc2cc(-c3noc(Cc4ccc(F)cc4)n3)ccc2o1`: the figures for the fold change (FC) in series [1] and in series [2] were 1.73 and 3.2, respectively.
For the molecule `CC(C)(C)c1cc(O)ccc1O` [E319], the fold change (FC) came to 5.2 in series [3]; 8.46 in [4]; 1.18 in series [5]; 1.25 in series [6]; 1.24 in series [7]; 2.14 in [8]. Further, the Activity entry in series [9], in series [10] and in [11] was “Non-toxic” each time. Also, the outcome in [12], in [13] and in series [14] was Active.
`CCOc1ccc(-c2nc(-c3ccc4[nH]c(=O)n(C5CCCC5)c4c3)no2)cc1OCC`: the fold change (FC) was 1.31 in [1] and 3.38 in series [2].
In the case of `CCOc1ccc(-c2nc(-c3ccc(-c4csc(C)n4)cc3)no2)c(CC)c1`, the fold change (FC) in series [1] amounted to 1.09; in [2] it was 3.08.
With `c1ccc(-c2nc3cc(-c4noc(-c5ccc6[nH]cnc6c5)n4)ccc3o2)cc1`, the fold change (FC) in [3] was found to be 8.23; in series [4], 17.7; in series [1], 4.55; in [2], 6.96; in series [5] it was 1.81; in [6], 4.42. Moreover, the fold change (FC) in series [7] came out at 3.21; in series [8], 5.43.
As to `Cc1nc2cc(-c3noc(-c4ccc5[nH]cnc5c4)n3)ccc2o1`, the fold change (FC) came out at 4.88 in series [3]; 2.51 in series [4]; 4.38 in series [1]; 7.98 in series [2]; 1.89 in series [5]; 2.35 in series [6]. In addition, the fold change (FC) came to 3.95 in series [7] and 8.94 in [8].
Regarding `COc1ccc(Cl)cc1-c1nc(-c2ccc3oc(C)nc3c2)no1`, the fold change (FC) in series [1] worked out at 3.62; in [2], 3.72.
Turning to `Clc1cc(-c2nc(-c3ccc4oc(-c5ccccc5)nc4c3)no2)ccn1`, the fold change (FC) in [3] worked out at 9.84; in series [4], 10.5; in series [1], 4.64; in series [2] it was 6.64; in series [5], 3.08; in series [6] it was 3.41. The values for the fold change (FC) in series [7] and in [8] were 4.64 and 6.38, respectively.
With `CCc1ccc(-c2nc(-c3ccc4oc(C)nc4c3)no2)cc1`, the fold change (FC) in [1] is 2.36; in series [2], 4.52.
As for `Cc1nc2cc(-c3noc(-c4cccc(C#N)c4)n3)ccc2o1`, the fold change (FC) was 4.76 in [1] and 2.6 in series [2].
On to `Cn1cnc2ccc(-c3noc(-c4ccc5cc[nH]c5c4)n3)cc21`, for which the fold change (FC) in series [3] amounted to 12.1; in series [4] it was 8.73; in series [1], 4.1; in series [2], 5.47; in series [5], 1.09; in series [6], 1.5. Moreover, the figures for the fold change (FC) in [7] and in series [8] were 3.35 and 12.4, respectively.
`Cc1nc2cc(-c3noc(-c4cccnc4)n3)ccc2o1`: the fold change (FC) is 3.29 in series [1] and 7.08 in series [2].
As to `CC(C)n1c(=O)[nH]c2cc(-c3noc(C4CCCCC4)n3)ccc21`, the fold change (FC) in series [3] was found to be 6.17; in series [4], 5.74; in [1], 4.98; in series [2] it was 6.28; in [5], 3.81; in [6] it was 6.14. The results for the fold change (FC) in [7] and in series [8] were 7.51 and 7.33, respectively.
As for `CN(C)c1cccc(-c2nc(-c3ccc4c(c3)[nH]c(=O)n4C3CCCC3)no2)c1`, the fold change (FC) turned out to be 3.08 in series [3]; 3.06 in series [4]; 1.94 in series [1]; 5.38 in series [2]; 2.59 in series [5]; 3.53 in [6]. Further, the fold change (FC) in [7] came to 3.64; in series [8] it was 8.89.
With `CN(C)C=O` [DIMETHYLFORMAMIDE], the Activity result in series [9], in [10] and in series [11] was “Non-toxic” throughout. Besides, the result in series [12], in [13] and in [14] was Active. For the same molecule, the fold change (FC) was 1.65 in series [2]; 0.82 in [5]; 1 in [6]; 1.1 in series [7]; 2.97 in [8].
In the case of `CCCn1c(=O)[nH]c2cc(-c3noc(C4CCCC4)n3)ccc21`, the fold change (FC) in series [3] was found to be 6.01; in series [4], 8.4; in series [1], 3.2; in series [2] it was 7.27; in series [5], 3.71; in series [6] it was 4.19. Further, the fold change (FC) in series [7] was determined as 4.86; in series [8], 7.03.
